Measured values from patent US6676932B2, “Ultraviolet absorbent, photostabilizer, ultraviolet ray-absorbing composition, photostabilized composition and external preparation for skin” (Shiseido Co., Ltd., priority 2001, dated 2004).

Tests used:
Format in all cases: physicochemical
[1] = Dye stabilization effect under daylight exposure (Test Examples 6-91); set-up: key to Δ E: color difference ΔE in Lab vs. color before daylight exposure; key to Appearance (visual determination): ◯: no change; Δ: almost no change; x: change; settings: photostabilizer 0.05 wt %, daylight exposure (80 MJ)
Description: For observation of the change of the appearance of each test sample (determination based on visual observation) and the measurement of color difference (ΔE) before and after daylight exposure (80 MJ), the test sample was prepared.
(§1) With a spectrophotometer, the color was measured on the Lab coordinate system, to calculate the color difference on the basis of the color before daylight exposure. More specifically, the color difference (ΔE) was calculated on the basis of the measured values (L1, a1, b1) before daylight exposure.

[2] = Stabilization effect on perfume under daylight exposure (Test Examples 92 to 181); set-up: key: ◯: no change; Δ: almost no change; x: change; settings: daylight exposure (80 MJ)
Description: Each test sample was prepared for observation of the change of the odor of the test sample (determined by perfume coordinator) before and after daylight exposure (80 MJ).

[3] = Drug stabilization effect under daylight exposure (Test Examples 182 to 211); set-up: key to Appearance (visual determination): ◯: no change; Δ: almost no change; x: change; settings: photostabilizer 0.05 wt %, daylight exposure (80 MJ); for Remaining ratio (%): liquid chromatography
Description: For observation of the change of the appearance of each test sample (determination based on visual observation) and the measurement of the remaining ratio by liquid chromatography before and after daylight exposure (80 MJ), the test sample was prepared.

[4] = Dye stabilization effect in blend with sequestering agents (Test Examples 212 to 275); settings: daylight exposure (80 MJ)
Description: Each test sample was prepared for observation of the change of the appearance of each test sample (determined visually) and measurement of the color difference (ΔE) before and after daylight exposure (80 MJ).
as §1

[5] = dye Blue 1 (Brilliant Blue FCF) 0.0001 wt %
[6] = dye Green 3 (Fast Green FCF) 0.001 wt %
[7] = dye Red 227 (Acid Fuchsine D) 0.0001 wt %
[8] = dye Yellow 5 (Sunset Yellow FCF) 0.001 wt %
[9] = dyes Red 106 (Acid red) 0.00001 + Yellow 203 (Quinoline Yellow WS) 0.0001 wt %
[10] = dyes Red 213 (Rhodamine B) 0.00001 + Blue 1 (Brilliant Blue FCF) 0.00001 wt %
[11] = dyes Red 227 (Acid Fuchsine D) 0.0001 + Yellow 5 (Sunset Yellow FCF) 0.0001 wt %
[12] = dyes Red 401 (Violanin R) 0.0001 + Blue 1 (Brilliant Blue FCF) 0.00001 wt %
[13] = dyes Yellow 203 (Quinoline Yellow WS) 0.0001 + Yellow 5 (Sunset Yellow FCF) 0.0001 wt %
[14] = base perfume Fruity, photostabilizer 0.1 wt %
[15] = base perfume Muge, photostabilizer 0.05 wt %
[16] = natural perfume Jasmine oil, photostabilizer 0.05 wt %
[17] = natural perfume Nelori oil, photostabilizer 0.1 wt %
[18] = synthetic perfume Limonene oil, photostabilizer 0.05 wt %
[19] = synthetic perfume Rose oxide, photostabilizer 0.2 wt %
[20] = drug Dipotassium glycyrrhizinate 0.05 wt %
[21] = drug L-ascorbic acid 2-glucoside 2.0 wt %
[22] = drug dibutylhydroxytoluene 0.01 wt %
[23] = drug dl-α-tocopherol 2-L-ascorbic acid phosphate diester potassium salt 0.01 wt %
[24] = dye Green 3 (Fast Green FCF) 0.001, sequestering agent 0.1 alone, photostabilizer 0
[25] = dye Yellow 5 (Sunset Yellow FCF) 0.0001, sequestering agent 0.03 alone, photostabilizer 0

Q: What does the source list for `COc1ccc(C(=O)c2ccccc2)c(O)c1` [2-Hydroxy-4-methoxybenzophenone, reference compound]?
A: Appearance (visual determination) [1, 5]: Δ; Δ E [1, 5]: 1.76; Appearance (visual determination) [1, 6]: Δ; Δ E [1, 6]: 0.75; Appearance (visual determination) [1, 7]: Δ; Δ E [1, 7]: 0.71; Appearance (visual determination) [1, 8]: Δ; Δ E [1, 8]: 0.82; Appearance (visual determination) [1, 9]: Δ; Δ E [1, 9]: 1.11; Appearance (visual determination) [1, 10]: Δ; Δ E [1, 10]: 1.26; Appearance (visual determination) [1, 11]: Δ; Δ E [1, 11]: 0.88; Appearance (visual determination) [1, 12]: Δ; Δ E [1, 12]: 0.82; Appearance (visual determination) [1, 13]: ◯; Δ E [1, 13]: 0.52; odor determination [2, 14]: Δ; odor determination [2, 15]: Δ; odor determination ([2]; base perfume Rose, photostabilizer 0.05 wt %): Δ; odor determination ([2]; base perfume Spicy, photostabilizer 0.2 wt %): Δ; odor determination ([2]; base perfume Woody, photostabilizer 0.1 wt %): Δ; odor determination [2, 16]: Δ; odor determination ([2]; natural perfume Lavender oil, photostabilizer 0.1 wt %): Δ; odor determination [2, 17]: Δ; odor determination ([2]; natural perfume Rose oil, photostabilizer 0.05 wt %): Δ; odor determination ([2]; natural perfume Ylang ylang oil, photostabilizer 0.2 wt %): Δ; odor determination ([2]; synthetic perfume Citral, photostabilizer 0.1 wt %): Δ; odor determination [2, 18]: Δ; odor determination ([2]; synthetic perfume Linalool, photostabilizer 0.05 wt %): Δ; odor determination ([2]; synthetic perfume Linalyl acetate, photostabilizer 0.1 wt %): Δ; odor determination [2, 19]: Δ; Appearance (visual determination) [3, 20]: Δ; Remaining ratio (%) [3, 20]: 97.8%; Appearance (visual determination) [3, 21]: Δ; Remaining ratio (%) [3, 21]: 97.8%; Appearance (visual determination) [3, 22]: Δ; Remaining ratio (%) [3, 22]: 95.2%; Appearance (visual determination) [3, 23]: Δ; Remaining ratio (%) [3, 23]: 95.4%; Appearance (visual determination) ([3]; drug salicylic acid 0.1 wt %): Δ; Remaining ratio (%) ([3]; drug salicylic acid 0.1 wt %): 98.2%

Q: What does the source list for `COc1cc(O)c(C(=O)c2ccccc2)cc1S(=O)(=O)[O-].[Na+]` [2-Hydroxy-4-methoxybenzophenone-5-sulfonate sodium, reference compound]?
A: Appearance (visual determination) [1, 5]: Δ; Δ E [1, 5]: 1.67; Appearance (visual determination) [1, 6]: Δ; Δ E [1, 6]: 0.74; Appearance (visual determination) [1, 7]: Δ; Δ E [1, 7]: 0.80; Appearance (visual determination) [1, 8]: Δ; Δ E [1, 8]: 0.78

Q: For `OCCNc1ccc(NCCO)nn1` [3,6-Bis(2-hydroxyethylamino) pyridazine], which “Δ E” value ([4]; dyes Yellow 203 (Quinoline Yellow WS) 0.0001 + Yellow 5 (Sunset Yellow FCF) 0.0001, no sequestering agent, photostabilizer blend amount 0.02) is on record?
A: 0.88

Q: What about the “Δ E” value ([4]; dyes Yellow 203 (Quinoline Yellow WS) 0.0001 + Yellow 5 (Sunset Yellow FCF) 0.0001, with sodium metaphosphate 0.01, photostabilizer blend amount 0.02) of the same molecule?
A: 0.55

Q: With `OCCNc1ccc(NCCO)nn1` [3,6-Bis(2-hydroxyethylamino)pyridazine, 3,6-bis(2-hydroxyethylamino)pyridazine] as the molecule, how does the “Appearance (visual determination)” value [1, 5] read?
A: ◯

Q: And the “Δ E” value [1, 5]?
A: 1.38

Q: And the “Appearance (visual determination)” value [1, 6]?
A: ◯

Q: And the “Δ E” value [1, 6]?
A: 0.63

Q: And the “Appearance (visual determination)” value [1, 7]?
A: ◯

Q: And the “Δ E” value [1, 7]?
A: 0.64

Q: And the “Appearance (visual determination)” value [1, 8]?
A: ◯

Q: What about the “Δ E” value [1, 8] of the same molecule?
A: 0.66

Q: What about the “Appearance (visual determination)” value [1, 13] of the same molecule?
A: ◯

Q: And the “Δ E” value [1, 13]?
A: 0.47

Q: What about the odor determination [2, 14] of the same molecule?
A: ◯

Q: And the odor determination [2, 17]?
A: ◯

Q: And the odor determination [2, 18]?
A: ◯

Q: What about the “Appearance (visual determination)” value [3, 20] of the same molecule?
A: ◯

Q: And the “Remaining ratio (%)” value [3, 20]?
A: 98.8%

Q: What about the “Appearance (visual determination)” value [3, 21] of the same molecule?
A: ◯

Q: And the “Remaining ratio (%)” value [3, 21]?
A: 98.8%

Q: For `Oc1nncc(N2CCCCC2)c1N1CCCCC1` [4,5-Dipipendino-3-hydroxypyridazine], which “Δ E” value ([4]; dyes Red 227 (Acid Fuchsine D) 0.0001 + Yellow 5 (Sunset Yellow FCF) 0.0001, no sequestering agent, photostabilizer blend amount 0.01) is on record?
A: 1.12

Q: And the “Δ E” value ([4]; dyes Red 227 (Acid Fuchsine D) 0.0001 + Yellow 5 (Sunset Yellow FCF) 0.0001, with ethylenediaminetetraacetate trisodium 0.02, photostabilizer blend amount 0.01)?
A: 0.68

Q: With `Oc1nncc(N2CCCCC2)c1N1CCCCC1` [4,5-Dipiperidino-33-hydroxy pyridazine] as the molecule, how does the “Δ E” value ([4]; dyes Red 401 (Violanin R) 0.0001 + Green 3 (Fast Green FCF) 0.00001, no sequestering agent, photostabilizer blend amount 0.02) read?
A: 1.52

Q: And the “Δ E” value ([4]; dyes Red 401 (Violanin R) 0.0001 + Green 3 (Fast Green FCF) 0.00001, with sodium metaphosphate 0.03, photostabilizer blend amount 0.02)?
A: 0.77

Q: With `OCCN(CCO)c1cnnc(O)c1` [5-bis(2-hydroxyethyl)amino-3-hydroxypyridazine] as the molecule, how does the “Appearance (visual determination)” value [1, 5] read?
A: ◯

Q: And the “Δ E” value [1, 5]?
A: 1.29

Q: And the “Appearance (visual determination)” value [1, 6]?
A: ◯

Q: What about the “Δ E” value [1, 6] of the same molecule?
A: 0.62

Q: And the “Appearance (visual determination)” value [1, 7]?
A: ◯

Q: And the “Δ E” value [1, 7]?
A: 0.55

Q: What about the “Appearance (visual determination)” value [1, 8] of the same molecule?
A: ◯

Q: And the “Δ E” value [1, 8]?
A: 0.65

Q: And the “Appearance (visual determination)” value [1, 9]?
A: ◯

Q: And the “Δ E” value [1, 9]?
A: 0.85

Q: And the odor determination [2, 15]?
A: ◯

Q: What about the odor determination [2, 16] of the same molecule?
A: ◯

Q: What about the odor determination [2, 19] of the same molecule?
A: ◯

Q: Which “Δ E” value ([4]; dye Blue 1 (Brilliant Blue FCF) 0.001, sequestering agent 0.05 alone, photostabilizer 0) does the source give for `O=C([O-])CN(CCN(CC(=O)[O-])CC(=O)O)CC(=O)[O-].[Na+].[Na+].[Na+]` [ethylenediaminetetraacetate trisodium] here?
A: 8.32

Q: What about the “Δ E” value [4, 24] of the same molecule?
A: 1.75

Q: And the “Δ E” value ([4]; dye Red 227 (Acid Fuchsine D) 0.0001, sequestering agent 0.02 alone, photostabilizer 0)?
A: 1.40

Q: What about the “Δ E” value [4, 25] of the same molecule?
A: 1.72

Q: What about the “Δ E” value ([4]; dyes Red 106 (Acid Red) 0.00001 + Yellow 5 (Sunset Yellow FCF) 0.0001, sequestering agent blend amount 0.02, photostabilizer 0) of the same molecule?
A: 4.26

Q: What about the “Δ E” value ([4]; dyes Red 227 (Acid Fuchsine D) 0.0001 + Yellow 5 (Sunset Yellow FCF) 0.0001, sequestering agent blend amount 0.02, photostabilizer 0) of the same molecule?
A: 1.55

Q: What about the “Δ E” value ([4]; dyes Red 401 (Violanin R) 0.0001 + Blue 1 (Brilliant Blue FCF) 0.00001, sequestering agent blend amount 0.03, photostabilizer 0) of the same molecule?
A: 3.02

Q: For `CCCCC(CC)COC(=O)/C=C/c1ccc(OC)cc1` (centres unmarked) [p-Methoxycinnamate octyl, reference compound], which “Appearance (visual determination)” value [1, 5] is on record?
A: x

Q: What about the “Δ E” value [1, 5] of the same molecule?
A: 5.23

Q: What about the “Appearance (visual determination)” value [1, 6] of the same molecule?
A: x

Q: What about the “Δ E” value [1, 6] of the same molecule?
A: 1.64

Q: And the “Appearance (visual determination)” value [1, 7]?
A: x

Q: And the “Δ E” value [1, 7]?
A: 1.22

Q: What about the “Appearance (visual determination)” value [1, 8] of the same molecule?
A: x

Q: What about the “Δ E” value [1, 8] of the same molecule?
A: 1.56

Q: Which results are given for sodium polyphosphate?
A: Δ E [4, 24]: 1.75; Δ E [4, 25]: 1.70
